Values of other authors as cited in patent US5658892A, “Compound delivery using high-pressure impulse transients” (The General Hospital Corporation, priority 1995, dated 1997).

System: prostate tumors
Conditions: rats, Holmes et al. 1990

## N.N.[Cl][Pt][Cl] [cisplatinum]
Combined with high-pressure, short-duration waves
  tumor growth: delayed tumor growth was achieved
Combined with shock wave therapy
  animal mortality (relative to cisplatinum alone): an increase in animal mortality
